Bridge positions count the residues as written; N and C are the ends. Square brackets hold non-standard residues; d marks the D form. Peptide text beside a SMILES is read from it. Hyp = O=C(O)[C@@H]1C[C@@H](O)CN1; Cit = NC(=O)NCCC[C@H](N)C(=O)O
Legend:
[1] = molecular target: T1, hAMY3 receptor (Homo sapiens, UniProt O60896+P30988); experiment: cAMP assay for in vitro receptor activation, hAMY3-R; format: cell-based; details: cAMP assay, hAMY3 receptor; read-out: hAMY3R EC50
T1 sequence (P30988 25-474): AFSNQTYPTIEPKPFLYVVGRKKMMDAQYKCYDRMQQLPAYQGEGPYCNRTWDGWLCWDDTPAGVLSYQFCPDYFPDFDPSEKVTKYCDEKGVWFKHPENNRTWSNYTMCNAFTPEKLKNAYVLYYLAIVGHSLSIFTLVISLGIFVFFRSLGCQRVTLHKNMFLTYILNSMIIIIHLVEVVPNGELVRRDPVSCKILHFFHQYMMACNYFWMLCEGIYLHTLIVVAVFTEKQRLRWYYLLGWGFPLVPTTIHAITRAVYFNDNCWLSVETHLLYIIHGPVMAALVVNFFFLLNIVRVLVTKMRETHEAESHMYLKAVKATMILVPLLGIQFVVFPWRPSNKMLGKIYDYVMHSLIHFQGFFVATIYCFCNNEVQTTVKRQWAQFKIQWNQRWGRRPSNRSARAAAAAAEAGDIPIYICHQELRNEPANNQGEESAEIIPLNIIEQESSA
T1 sequence (O60896 24-148 partner): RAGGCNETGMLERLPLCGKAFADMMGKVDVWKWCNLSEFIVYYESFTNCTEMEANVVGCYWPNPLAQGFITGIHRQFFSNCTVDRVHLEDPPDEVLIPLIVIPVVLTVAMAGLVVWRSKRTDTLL
Summary of the method: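 Graded compound concentrations were applied for 30 min at room temperature to stably hAMY3-expressing cells in DPBS, 0.05% casein, 0.5 mM IBMX; cAMP detected by TR-FRET.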

[2] = Physical stability of peptide analogues (Thioflavin T fibrillation); format: physicochemical; details: maximum ThT signal normalized between hAMY maximum and buffer background; 40° C., shaking, four days; pH 7 per table title
Summary of the method: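 ThT fluorescence (450 nm excitation, 480 nm emission; 4 μM dye) was read every 10 min over four days at 40° C under 700 rpm shaking stress, after 1 h in pH 4 acetate or pH 7 phosphate (50 mM). Peak smoothed signal expressed as percent, scaled between buffer background and hAMY maximum.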

Row | Structure (SMILES) | EC50 [1] | Max ThT signal (%) [2]
1 | CC[C@H](C)[C@H](NC(=O)[C@H](CCC(N)=O)NC(=O)[C@H](Cc1c[nH]cn1)NC(=O)[C@H](C)NC(=O)[C@H](CC(C)C)NC(=O)[C@H](CCCNC(=N)N)NC(=O)[C@H](CCC(N)=O)NC(=O)[C@@H](NC(=O)[C@@H](NC(=O)[C@@H]1CSSC[C@H](NC(=O)CN)C(=O)N[C@@H](CCCNC(=N)N)C(=O)N[C@@H]([C@@H](C)O)C(=O)NCC(=O)N[C@@H]([C@@H](C)O)C(=O)N1)[C@@H](C)O)C(C)C)C(=O)N[C@@H](Cc1ccc(O)cc1)C(=O)N[C@@H](CCC(N)=O)C(=O)N[C@@H](Cc1ccccc1)C(=O)N[C@H](C(=O)N[C@@H](CC(=O)O)C(=O)N[C@@H](CCCCN)C(=O)N[C@@H](CC(=O)O)C(=O)N[C@@H](CCCCN)C(=O)N[C@@H](CC(=O)O)C(=O)N[C@@H](CC(N)=O)C(=O)N[C@H](C(=O)N[C@@H](C)C(=O)N1CCC[C@H]1C(=O)N[C@@H](CCCNC(=N)N)C(=O)N[C@H](C(=O)N[C@@H](CC(N)=O)C(=O)N[C@H](C(=O)NCC(=O)N1CCC[C@H]1C(=O)N[C@@H](CCC(N)=O)C(=O)NCC(=O)N1C[C@H](O)C[C@H]1C(N)=O)C(C)C)[C@@H](C)O)C(C)C)[C@@H](C)O [compound 49] (H-GCRTGTCTVQRLAHQIYQFTDKDKDNVAPRTNVGPQG[Hyp]-NH2; disulfide 2-7; N-terminus assumed) | 0.011 nM | 3.200%
2 | CC[C@H](C)[C@H](NC(=O)[C@H](CCC(N)=O)NC(=O)[C@H](Cc1c[nH]cn1)NC(=O)[C@H](C)NC(=O)[C@H](CC(C)C)NC(=O)[C@H](CCCNC(=N)N)NC(=O)[C@H](CCC(N)=O)NC(=O)[C@@H](NC(=O)[C@@H](NC(=O)[C@@H]1CSSC[C@H](NC(=O)CN)C(=O)N[C@@H](CCCNC(=N)N)C(=O)N[C@@H]([C@@H](C)O)C(=O)NCC(=O)N[C@@H]([C@@H](C)O)C(=O)N1)[C@@H](C)O)C(C)C)C(=O)N[C@@H](Cc1ccc(O)cc1)C(=O)N[C@@H](CCC(N)=O)C(=O)N[C@@H](Cc1ccccc1)C(=O)N[C@H](C(=O)N[C@@H](CC(=O)O)C(=O)N[C@@H](CCCCN)C(=O)N[C@@H](Cc1ccccc1)C(=O)N[C@@H](CCCCN)C(=O)N[C@@H](CC(=O)O)C(=O)N[C@@H](CC(N)=O)C(=O)N[C@H](C(=O)N[C@@H](C)C(=O)N1CCC[C@H]1C(=O)N[C@@H](CCCNC(=N)N)C(=O)N[C@@H](CO)C(=O)N[C@@H](CCCCN)C(=O)N[C@H](C(=O)N[C@@H](CO)C(=O)N1CCC[C@H]1C(=O)N[C@@H](CCC(N)=O)C(=O)N[C@@H](Cc1c[nH]cn1)C(=O)N1C[C@H](O)C[C@H]1C(N)=O)[C@@H](C)CC)C(C)C)[C@@H](C)O [compound 201] (H-GCRTGTCTVQRLAHQIYQFTDKFKDNVAPRSKISPQH[Hyp]-NH2; disulfide 2-7; N-terminus assumed) | 0.126 nM | 1.000%
3 | CC[C@H](C)[C@H](NC(=O)[C@H](CCC(N)=O)NC(=O)[C@H](Cc1c[nH]cn1)NC(=O)[C@H](C)NC(=O)[C@H](CC(C)C)NC(=O)[C@H](CCCNC(N)=O)NC(=O)[C@H](CCC(N)=O)NC(=O)[C@@H](NC(=O)[C@@H](NC(=O)[C@@H]1CSSC[C@H](NC(=O)CN)C(=O)N[C@@H](CCCNC(=N)N)C(=O)N[C@@H]([C@@H](C)O)C(=O)NCC(=O)N[C@@H]([C@@H](C)O)C(=O)N1)[C@@H](C)O)C(C)C)C(=O)N[C@@H](Cc1ccc(O)cc1)C(=O)N[C@@H](CCC(N)=O)C(=O)N[C@@H](Cc1ccccc1)C(=O)N[C@H](C(=O)N[C@@H](CC(=O)O)C(=O)N[C@@H](CCCCN)C(=O)N[C@@H](CC(=O)O)C(=O)N[C@@H](CCCCN)C(=O)N[C@@H](CC(=O)O)C(=O)N[C@@H](CC(N)=O)C(=O)N[C@H](C(=O)N[C@@H](C)C(=O)N1CCC[C@H]1C(=O)N[C@@H](CCCNC(=N)N)C(=O)N[C@H](C(=O)N[C@@H](CC(N)=O)C(=O)N[C@H](C(=O)N[C@@H](CO)C(=O)N1CCC[C@H]1C(=O)N[C@@H](CC(N)=O)C(=O)NCC(=O)N1C[C@H](O)C[C@H]1C(N)=O)C(C)C)[C@@H](C)O)C(C)C)[C@@H](C)O [compound 302] (H-GCRTGTCTVQ[Cit]LAHQIYQFTDKDKDNVAPRTNVSPNG[Hyp]-NH2; disulfide 2-7; N-terminus assumed) | 0.071 nM | 24.250%

Further compounds by falling EC50 [1], results first:

Row | EC50 [1] | Max ThT signal (%) [2] | Structure (SMILES)
4 | 0.029 nM | 1.400% | CC[C@H](C)[C@H](NC(=O)[C@H](CCC(N)=O)NC(=O)[C@H](Cc1c[nH]cn1)NC(=O)[C@H](C)NC(=O)[C@H](CC(C)C)NC(=O)[C@H](CCCNC(=N)N)NC(=O)[C@H](CCC(N)=O)NC(=O)[C@@H](NC(=O)[C@@H](NC(=O)[C@@H]1CSSC[C@H](NC(=O)CN)C(=O)N[C@@H](CCCNC(=N)N)C(=O)N[C@@H]([C@@H](C)O)C(=O)NCC(=O)N[C@@H]([C@@H](C)O)C(=O)N1)[C@@H](C)O)C(C)C)C(=O)N[C@@H](Cc1ccc(O)cc1)C(=O)N[C@@H](CCC(N)=O)C(=O)N[C@@H](Cc1ccccc1)C(=O)N[C@H](C(=O)N[C@@H](CC(=O)O)C(=O)N[C@@H](CCCCN)C(=O)N[C@@H](CC(=O)O)C(=O)N[C@@H](CCCCN)C(=O)N[C@@H](CC(=O)O)C(=O)N[C@@H](CC(N)=O)C(=O)N[C@H](C(=O)N[C@@H](C)C(=O)N1CCC[C@H]1C(=O)N[C@@H](CCCNC(=N)N)C(=O)N[C@@H](CO)C(=O)N[C@@H](CCCCN)C(=O)N[C@H](C(=O)NCC(=O)N1CCC[C@H]1C(=O)N[C@@H](CCC(N)=O)C(=O)NCC(=O)N[C@@H](Cc1ccc(O)cc1)C(N)=O)C(C)C)C(C)C)[C@@H](C)O [compound 129] (H-GCRTGTCTVQRLAHQIYQFTDKDKDNVAPRSKVGPQGY-NH2; disulfide 2-7)
5 | 0.017 nM | 12.600% | CC[C@H](C)[C@H](NC(=O)[C@H](CCC(N)=O)NC(=O)[C@H](Cc1c[nH]cn1)NC(=O)[C@H](C)NC(=O)[C@H](CC(C)C)NC(=O)[C@H](CCCNC(=N)N)NC(=O)[C@H](CCC(N)=O)NC(=O)[C@@H](NC(=O)[C@@H](NC(=O)[C@@H]1CSSC[C@H](NC(=O)CN)C(=O)N[C@@H](CCCNC(=N)N)C(=O)N[C@@H](Cc2ccccc2)C(=O)NCC(=O)N[C@@H]([C@@H](C)O)C(=O)N1)[C@@H](C)O)C(C)C)C(=O)N[C@@H](Cc1ccc(O)cc1)C(=O)N[C@@H](CCC(N)=O)C(=O)N[C@@H](Cc1ccccc1)C(=O)N[C@H](C(=O)N[C@@H](CC(=O)O)C(=O)N[C@@H](CCCCN)C(=O)N[C@@H](CC(=O)O)C(=O)N[C@@H](CCCCN)C(=O)N[C@@H](CC(=O)O)C(=O)N[C@@H](CC(N)=O)C(=O)N[C@H](C(=O)N[C@@H](C)C(=O)N1CCC[C@H]1C(=O)N[C@@H](CCCNC(=N)N)C(=O)N[C@H](C(=O)N[C@@H](CC(N)=O)C(=O)N[C@H](C(=O)N[C@@H](CO)C(=O)N1CCC[C@H]1C(=O)N[C@@H](CC(N)=O)C(=O)NCC(=O)N[C@@H](Cc1ccc(O)cc1)C(N)=O)C(C)C)[C@@H](C)O)C(C)C)[C@@H](C)O [compound 98] (H-GCRFGTCTVQRLAHQIYQFTDKDKDNVAPRTNVSPNGY-NH2; disulfide 2-7; N-terminus assumed)
6 | 0.005 nM | 1.050% | CC(C)C[C@H](NC(=O)[C@H](CCCNC(N)=O)NC(=O)[C@H](CCC(N)=O)NC(=O)[C@@H](NC(=O)[C@@H](NC(=O)[C@@H]1CSSC[C@H](NC(=O)CN)C(=O)N[C@@H](CCCNC(=N)N)C(=O)N[C@@H](Cc2ccccc2)C(=O)NCC(=O)N[C@@H]([C@@H](C)O)C(=O)N1)[C@@H](C)O)C(C)C)C(=O)N[C@@H](C)C(=O)N[C@@H](Cc1c[nH]cn1)C(=O)N[C@@H](Cc1ccccc1)C(=O)N[C@@H](CC(C)C)C(=O)N[C@@H](Cc1ccc(O)cc1)C(=O)N[C@@H](CCC(N)=O)C(=O)N[C@@H](Cc1ccccc1)C(=O)N[C@H](C(=O)N[C@@H](CC(=O)O)C(=O)N[C@@H](CCCCN)C(=O)N[C@@H](CC(=O)O)C(=O)N[C@@H](CCCCN)C(=O)N[C@@H](CC(=O)O)C(=O)N[C@@H](CC(N)=O)C(=O)N[C@H](C(=O)N[C@@H](C)C(=O)N1CCC[C@H]1C(=O)N[C@@H](CCCNC(=N)N)C(=O)N[C@H](C(=O)N[C@@H](CC(N)=O)C(=O)N[C@H](C(=O)NCC(=O)N1CCC[C@H]1C(=O)N[C@@H](CCC(N)=O)C(=O)NCC(=O)N[C@@H](Cc1ccc(O)cc1)C(N)=O)C(C)C)[C@@H](C)O)C(C)C)[C@@H](C)O [compound 263] (H-GCRFGTCTVQ[Cit]LAHFLYQFTDKDKDNVAPRTNVGPQGY-NH2; disulfide 2-7; N-terminus assumed)

Reference: patent US12139520B2 (priority 2020, dated 2024)
